Test system: hippocampal neurons
Assay: Neurite outgrowth assay in cultured E18 rat hippocampal neurons (48 h, βIII-tubulin staining, Cellomics ArrayScan)
Format: cell-based
Conditions: Hippocampal neuron; for activity at 0.015625 µg/mL: 15.625 ng/mL compound; for activity at 0.015625 µg/mL / activity at 0.03125 µg/mL / activity at 0.0625 µg/mL / activity at 0.125 µg/mL / activity at 0.25 µg/mL / activity at 0.5 µg/mL: 48 hours, read-out: neurite growth length (% NTL); for activity at 0.03125 µg/mL: 31.25 ng/mL compound; for activity at 0.0625 µg/mL: 62.5 ng/mL compound; for activity at 0.125 µg/mL: 125 ng/mL compound; for activity at 0.25 µg/mL: 250 ng/mL compound; for activity at 0.5 µg/mL: 500 ng/mL compound; for EC200 / EC300: 48 h, estimated using linear interpolation; for EC200: 200% effective dose, read-out: ED200%; for EC300: 300% effective dose, read-out: ED300%
Method: Pre-coating culture plates: On the day before the experiment, 96-well plates were pre-coated by plating 50 μL of poly-D-lysine solution (PDL, 0.5 mg/mL) in each well. The next morning, the plates were washed four or five times with HBSS or PBS (150 μL/rinse), then left in buffer until cell plating
Preparing the cells: A timed pregnant rat carrying E18 embryos was euthanized using an IACUC approved method. In a laminar flow hood, the embryos were removed and placed in a petri dish containing Hank's Balanced Salt Solution (HBSS) with 20 mM HEPES, pH 7.3. Pup brains were dissected (see Meberg et al., Methods cell Biol 71:111-127 (2003)) and hippocampi were collected in 15 mL a conical tube containing Hibernate E with SM1 (2% v/v).
Dissociation media was prepared by combining 4.5 mL of Hibernate E (without SM1) with 0.5 mL of trypsin and 100 μl of DNAse solution. The medium over the hippocampi was carefully removed and replaced with dissociation solution, then incubated at 37° C. for 15-20 minutes, occasionally swirling the tube.
Using flame polished cotton plugged Pasteur pipettes, the dissociation media was removed, and then 5 mL of Hibernate E containing SM1 were added. The tube was swirled to thoroughly wash the tissue. The tissue was allowed to settle to the bottom of the tube, and the rinse solution was carefully removed. This step was repeated 5 times to dilute out trypsin and DNAse and remove any debris from lysed cells.
The final rinse media was removed from the tube and 1 pipette-full (1-2 mL) of Hibernate E with SM1 was added. Using the flame-polished Pasteur pipette (pre-wetted with rinse media), the tube was triturated until all cells had dissociated and no visible chunks of tissue remained. Fewer than ten triturations were typically performed. The volume was adjusted to 8-12 mL using Hibernate E containing SM1, the well was mixed and cell concentration was determined.
Plating: The cells were diluted in culture media (NbActiv4 Cell-culture media) to a final concentration of 10,000 cells/mL. The HBSS was aspirated from PDL coated plates, and 150 μL of cell solution was loaded in the middle 48 wells at 1500 cells per well. Water was loaded in the outer wells to decrease evaporation from edge wells. Cells were allowed to adhere for 2 hours in tissue culture incubator prior to treatment.
Treatment: Compounds were diluted to various concentrations to provide 6 dose response concentrations of 500 ng/mL, 250 ng/mL, 125 ng/mL, 62.5 ng/mL, 31.25 ng/mL, and 15.625 ng/mL. The plates were cultured for 48 hours, exposed to the compound at the various dose response concentrations.
Fixing the cultures: The culture medium was removed from the plates and immediately replaced with 100-200 μL of warm (37° C.) 4% paraformaldehyde (“PFA”) solution in phosphate-buffered saline (“PBS”). The cells were fixed for 15-20 minutes at room temperature, and then rinsed with PBS (200 μl/well×3).
Staining and imaging: The PBS was removed and replaced with 100 μL of blocking/permeabilization buffer (PBS, 0.2% fish gelatin, 0.03% Triton X-100, 0.02% NaN3), then incubated overnight at 4° C. To this was added 100 μL of primary antibody solution (mouse anti-Beta III tubulin in blocking buffer) and incubate overnight at 4° C. The wells were rinsed with PBS (200 μl×3), which was then removed and replaced with 100 μL of secondary antibody solution (Goat anti-mouse Alexa 488, 10 μg/ml Hoechst 33342, 0.2% fish gelatin, 0.02% azide, in PBS). The plate was shaken gently on a rotating shaker for 2 hours, then rinsed with PBS (200 μl×5).
The plate was imaged using a Cellomics ArrayScan VTI in 2 different channels for nuclear staining (Hoechst) and cell body/neurite staining (βIII-tubulin). Typically, nine fields per well were imaged with a 5× objective and automatically traced by the Neuronal Profiling Bioapplication. To get reproducible results, at least 200-300 valid neurons were measured per condition. […]

`CCC(C)C1=N[C@@H](CCCCN2C[C@@H](C)N(CCCC(C)C)C2=S)CN1` (mixture of isomers) [Compound A1, (4R)-1-(4-((4S)-2-(sec-butyl)-4,5-dihydro-1H-imidazol-4-yl)butyl)-4-methyl-3-(4-methylpentyl)imidazolidine-2-thione] was tested, and the activity at 0.015625 µg/mL was 92%, the activity at 0.03125 µg/mL was 116% and the activity at 0.0625 µg/mL was 155%. The activity at 0.125 µg/mL was 169%, the activity at 0.25 µg/mL was 209% and the activity at 0.5 µg/mL was 323%.

`CCC(C)C1=N[C@@H](CCCCN2C[C@@H](CC(C)C)N(CCCC(C)C)C2=S)CN1` (mixture of isomers) [Compound A10, (4R)-1-(4-((4S)-2-(sec-butyl)-4,5-dihydro-1H-imidazol-4-yl)butyl)-4-isobutyl-3-(4-methylpentyl)imidazolidine-2-thione] was tested, and the activity at 0.015625 µg/mL was 123%, the activity at 0.03125 µg/mL was 180% and the activity at 0.0625 µg/mL was 223%. It also gave an activity at 0.125 µg/mL of 254%, an activity at 0.25 µg/mL of 259% and an activity at 0.5 µg/mL of 240%.

`CC(C)CCCN1C(=S)N(CCCC[C@H]2CNC(C3CCCC3)=N2)C[C@H]1C` [Compound A2, (R)-1-(4-((S)-2-cyclopentyl-4,5-dihydro-1H-imidazol-4-yl)butyl)-4-methyl-3-(4-methylpentyl)imidazolidine-2-thione] gave an activity at 0.015625 µg/mL of 114%, an activity at 0.03125 µg/mL of 138% and an activity at 0.0625 µg/mL of 176%. The activity at 0.125 µg/mL was 214%, the activity at 0.25 µg/mL was 265% and the activity at 0.5 µg/mL was 324%.

With `CC(C)CCCN1C(=S)N(CCCC[C@H]2CNC(CCCc3ccccc3)=N2)C[C@H]1C` [Compound A3, (R)-4-methyl-3-(4-methylpentyl)-1-(4-((S)-2-(3-phenylpropyl)-4,5-dihydro-1H-imidazol-4-yl)butyl)imidazolidine-2-thione] the activity at 0.015625 µg/mL was 116%, the activity at 0.03125 µg/mL was 100% and the activity at 0.0625 µg/mL was 124%. For the same compound, the activity at 0.125 µg/mL was 160%, the activity at 0.25 µg/mL was 257% and the activity at 0.5 µg/mL was 347%.

For `CCC(C)C1=N[C@@H](CCCCN2C[C@@H](C)N(CCC3CCCCC3)C2=S)CN1` (stereo partly drawn) [Compound A4, (4R)-1-(4-((4S)-2-(sec-butyl)-4,5-dihydro-1H-imidazol-4-yl)butyl)-3-(2-cyclohexylethyl)-4-methylimidazolidine-2-thione], the activity at 0.015625 µg/mL was 102%, the activity at 0.03125 µg/mL was 121% and the activity at 0.0625 µg/mL was 143%. It also gave an activity at 0.125 µg/mL of 196%, an activity at 0.25 µg/mL of 246% and an activity at 0.5 µg/mL of 358%.

`C[C@@H]1CN(CCCC[C@H]2CNC(C3CCCC3)=N2)C(=S)N1CCC1CCCCC1` [Compound A5, (R)-3-(2-cyclohexylethyl)-1-(4-((S)-2-cyclopentyl-4,5-dihydro-1H-imidazol-4-yl)butyl)-4-methylimidazolidine-2-thione] showed an activity at 0.015625 µg/mL of 105%, an activity at 0.03125 µg/mL of 158% and an activity at 0.0625 µg/mL of 188%. The activity at 0.125 µg/mL was 251%, the activity at 0.25 µg/mL was 246% and the activity at 0.5 µg/mL was 304%.

For `C[C@@H]1CN(CCCC[C@H]2CNC(CCCc3ccccc3)=N2)C(=S)N1CCC1CCCCC1` [Compound A6, (R)-3-(2-cyclohexylethyl)-4-methyl-1-(4-((S)-2-(3-phenylpropyl)-4,5-dihydro-1H-imidazol-4-yl)butyl)imidazolidine-2-thione], the activity at 0.015625 µg/mL was 101%, the activity at 0.03125 µg/mL was 122% and the activity at 0.0625 µg/mL was 122%. For the same compound, the activity at 0.125 µg/mL was 210%, the activity at 0.25 µg/mL was 247% and the activity at 0.5 µg/mL was 243%.

In the case of `CCC(C)C1=N[C@@H](CCCCN2C[C@@H](C)N(CC3CCC(C)CC3)C2=S)CN1` (stereo partly drawn) [Compound A7, (4R)-1-(4-((4S)-2-(sec-butyl)-4,5-dihydro-1H-imidazol-4-yl)butyl)-4-methyl-3-((4-methylcyclohexyl)methyl)imidazolidine-2-thione], the activity at 0.015625 µg/mL is reported as 97%, the activity at 0.03125 µg/mL is reported as 135% and the activity at 0.0625 µg/mL is reported as 150%. The activity at 0.125 µg/mL was 166%, the activity at 0.25 µg/mL was 267% and the activity at 0.5 µg/mL was 294%.

Compound `CC1CCC(CN2C(=S)N(CCCC[C@H]3CNC(C4CCCC4)=N3)C[C@H]2C)CC1` (stereo partly drawn) [Compound A8, (R)-1-(4-((S)-2-cyclopentyl-4,5-dihydro-1H-imidazol-4-yl)butyl)-4-methyl-3-((4-methylcyclohexyl)methyl)imidazolidine-2-thione] has an activity at 0.015625 µg/mL of 95%, an activity at 0.03125 µg/mL of 128% and an activity at 0.0625 µg/mL of 168%. The activity at 0.125 µg/mL was 231%, the activity at 0.25 µg/mL was 257% and the activity at 0.5 µg/mL was 322%. It also gave an EC200 of 0.13 µM and an EC300 of 0.282 µM.

`CC1CCC(CN2C(=S)N(CCCC[C@H]3CNC(CCCc4ccccc4)=N3)C[C@H]2C)CC1` (stereo partly drawn) [Compound A9, (R)-4-methyl-3-((4-methylcyclohexyl)methyl)-1-(4-((S)-2-(3-phenylpropyl)-4,5-dihydro-1H-imidazol-4-yl)butyl)imidazolidine-2-thione] was tested, and the activity at 0.015625 µg/mL was 88%, the activity at 0.03125 µg/mL was 102% and the activity at 0.0625 µg/mL was 118%. For the same compound, the activity at 0.125 µg/mL was 70%, the activity at 0.25 µg/mL was 238% and the activity at 0.5 µg/mL was 297%.

Compound `CC(C)CCCN1C(=S)N(CCCC[C@H]2CNC(C3CCCC3)=N2)C[C@H]1CC(C)C` [Compound A11, (R)-1-(4-((S)-2-cyclopentyl-4,5-dihydro-1H-imidazol-4-yl)butyl)-4-isobutyl-3-(4-methylpentyl)imidazolidine-2-thione] has an activity at 0.015625 µg/mL of 135%, an activity at 0.03125 µg/mL of 215% and an activity at 0.0625 µg/mL of 266%. For the same compound, the activity at 0.125 µg/mL was 273%, the activity at 0.25 µg/mL was 264% and the activity at 0.5 µg/mL was 256%.

Work on `CC(C)CCCN1C(=S)N(CCCC[C@H]2CNC(CCCc3ccccc3)=N2)C[C@H]1CC(C)C` [Compound A12, (R)-4-isobutyl-3-(4-methylpentyl)-1-(4-((S)-2-(3-phenylpropyl)-4,5-dihydro-1H-imidazol-4-yl)butyl)imidazolidine-2-thione] yielded an activity at 0.015625 µg/mL of 127%, an activity at 0.03125 µg/mL of 145% and an activity at 0.0625 µg/mL of 194%. It also gave an activity at 0.125 µg/mL of 237%, an activity at 0.25 µg/mL of 266% and an activity at 0.5 µg/mL of 240%.

Work on `CCC(C)C1=N[C@@H](CCCCN2C[C@@H](CC(C)C)N(CCC3CCCCC3)C2=S)CN1` (stereo partly drawn) [Compound A13, (4R)-1-(4-((4S)-2-(sec-butyl)-4,5-dihydro-1H-imidazol-4-yl)butyl)-3-(2-cyclohexylethyl)-4-isobutylimidazolidine-2-thione] yielded an activity at 0.015625 µg/mL of 159%, an activity at 0.03125 µg/mL of 179% and an activity at 0.0625 µg/mL of 262%. For the same compound, the activity at 0.125 µg/mL was 253%, the activity at 0.25 µg/mL was 253% and the activity at 0.5 µg/mL was 264%.

With `CC(C)C[C@@H]1CN(CCCC[C@H]2CNC(C3CCCC3)=N2)C(=S)N1CCC1CCCCC1` [Compound A14, (R)-3-(2-cyclohexylethyl)-1-(4-((S)-2-cyclopentyl-4,5-dihydro-1H-imidazol-4-yl)butyl)-4-isobutylimidazolidine-2-thione] the activity at 0.015625 µg/mL was 195%, the activity at 0.03125 µg/mL was 256% and the activity at 0.0625 µg/mL was 271%. For the same compound, the activity at 0.125 µg/mL was 283%, the activity at 0.25 µg/mL was 277% and the activity at 0.5 µg/mL was 249%. For the same compound, the EC200 was 0.004 µM and the EC300 was greater than 0.543 µM.

Source: patent US11981660B2, “Neurite outgrowth promoters and uses thereof” (UNIVERSITY OF MIAMI, priority 2018, dated 2024)
